Values quoted from earlier work as cited in patent US20110077278A1, “Antifungal compositions and methods” (Troy Corporation, priority 2009, published 2011).

Tests used:
[1] = system: certain fungi; conditions: BBIT in the presence of sodium omadine and certain fungi; US 6,861,395
[2] = in metal working fluids; BBIT compared with IPBC; reported by US 6,861,395

Question: For CCCCn1sc2ccccc2c1=O [BBIT, 2-n-butyl-1,2-benzisothiazolin-3-one], which synergy [1] is on record?
Answer: The synergy was “exhibits synergy in the presence of sodium omadine and certain fungi”.

Question: And the “stability to high temperature storage” value [2]?
Answer: Its value is “considerably more stable to high temperature storage than IPBC”.
